Assay results taken from paper PMC11762167, “G Protein-Coupled Receptor 17 Inhibits Glucagon-like Peptide-1 Secretion via a Gi/o-Dependent Mechanism in Enteroendocrine Cells” (Biomolecules, 2024).

Legend:
Type in all cases: cell-based
hGPR17S = target: T1, hGPR17S (Homo sapiens, UniProt Q13304); assay: GloSensor cAMP in HEK293 cells transfected with hGPR17S
T1 construct: host or cells: HEK293 cells (ATCC CRL-1573), transient transfection
Method: (§1) HEK293 cells were maintained and transfected as previously described.
(§2) Live-cell, real-time cAMP measurements were performed using Promega (Madison, WI, USA) GloSensor cAMP luminescent biosensor technology. Glosensor cAMP experiments were conducted as previously described in GLUTag cells and HEK293 cells.

mGPR17 = mGPR17 (Mus musculus, UniProt Q6NS65); assay: Membrane β-arrestin recruitment in HEK293 cells transfected with mGPR17
Method: Membrane β-arrestin recruitment measurements were conducted using a luminescent membrane β-arrestin recruitment reporter assay. HEK293 cells were seeded into white, opaque, poly-D-lysine-coated 96-well plates and transiently transfected using Lipofectamine 3000 (Thermo Fisher Scientific, Waltham, MA, USA) according to the manufacturer’s protocol on the following day. At 48 h post-transfection, cells were washed twice with assay buffer (HBSS, 20 mM HEPES, pH 7.4) and allowed to equilibrate to room temperature for 15 min in assay buffer. Cells were then loaded with coelenterazine h (Nanolight Technology, Prolume Ltd., Lakeside, AZ, USA; 5 µM final concentration) for 5 min in the dark. Luminescence was read using a SpectraMax iD3 (Molecular Devices) with 1 s integration time. Baseline luminescence was read every 2 min for 6 min. Agonist was added and then luminescence was read every 2 min for 30 min.

hGPR17L = hGPR17L (Homo sapiens, UniProt Q13304); assay: GloSensor cAMP in HEK293 cells transfected with hGPR17L; parameters: host or cells: GLUTag cells (murine enteroendocrine line), adenoviral transduction
Method: as §1, §2

[1] = 3 µM forskolin, read-out: cAMP Potency EC50 (reversal of inhibition)
[2] = 3 µM forskolin-stimulated GloSensor cAMP, read-out: cAMP Potency IC50
[3] = 100 μM MDL29,951, 3 µM forskolin

hGPR17L, sequence (Q13304 whole entry): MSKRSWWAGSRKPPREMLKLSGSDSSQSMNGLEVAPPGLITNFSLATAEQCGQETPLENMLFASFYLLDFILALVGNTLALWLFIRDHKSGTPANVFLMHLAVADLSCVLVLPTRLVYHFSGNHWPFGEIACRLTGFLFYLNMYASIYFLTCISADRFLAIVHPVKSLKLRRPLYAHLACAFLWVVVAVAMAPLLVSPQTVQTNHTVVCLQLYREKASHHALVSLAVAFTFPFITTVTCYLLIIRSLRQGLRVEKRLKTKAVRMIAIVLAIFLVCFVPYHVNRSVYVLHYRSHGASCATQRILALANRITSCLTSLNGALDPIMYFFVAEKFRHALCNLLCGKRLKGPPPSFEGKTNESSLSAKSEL
mGPR17, sequence (Q6NS65 whole entry): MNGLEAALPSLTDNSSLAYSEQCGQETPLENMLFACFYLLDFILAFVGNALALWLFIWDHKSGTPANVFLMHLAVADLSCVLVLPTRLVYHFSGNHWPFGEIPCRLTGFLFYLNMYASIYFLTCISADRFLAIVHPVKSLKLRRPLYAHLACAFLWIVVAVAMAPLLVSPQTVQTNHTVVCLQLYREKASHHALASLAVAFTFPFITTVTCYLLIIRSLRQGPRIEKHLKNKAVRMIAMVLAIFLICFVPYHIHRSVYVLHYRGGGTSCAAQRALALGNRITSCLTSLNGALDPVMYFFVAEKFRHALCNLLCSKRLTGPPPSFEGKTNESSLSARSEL
T1 sequence (Q13304 29-367): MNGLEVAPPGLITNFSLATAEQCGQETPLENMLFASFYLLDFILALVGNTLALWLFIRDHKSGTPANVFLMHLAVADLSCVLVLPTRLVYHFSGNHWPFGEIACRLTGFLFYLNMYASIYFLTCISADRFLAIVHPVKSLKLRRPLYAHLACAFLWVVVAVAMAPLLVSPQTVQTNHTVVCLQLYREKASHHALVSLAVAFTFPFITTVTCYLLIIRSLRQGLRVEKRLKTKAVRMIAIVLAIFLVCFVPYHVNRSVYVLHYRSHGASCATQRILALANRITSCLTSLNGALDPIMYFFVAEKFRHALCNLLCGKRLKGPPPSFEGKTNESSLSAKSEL

Compound: O=C(O)CCc1c(C(=O)O)[nH]c2cc(Cl)cc(Cl)c12 [MDL29,951]
- cAMP Maximum Inhibition (% Inhibition) (hGPR17S; 3 µM forskolin): 48±2.2%
- cAMP Potency (pEC50) (reversal of inhibition) (hGPR17S; 3 µM forskolin): 5.45±0.07
- cAMP Potency (pIC50) (hGPR17S; 3 µM forskolin): 8.83±0.09
- EC50 (hGPR17S; [1]): 3600 nM
- IC50 (hGPR17S; [2]): 1.5 nM
- cAMP Effect of 100 μM MDL (% Inhibition) (hGPR17S; [3]): 13±3.7%
- β-arrestin Emax (Peak ΔRLU/RLU) (mGPR17): 0.54±0.03
- β-arrestin Potency (pEC50) (mGPR17): 6.69±0.10
- EC50 (mGPR17; read-out: β-arrestin Potency EC50): 200 nM
- cAMP Maximum Inhibition (% Inhibition) (hGPR17L; 3 µM forskolin): 48±2.9%
- cAMP Potency (pEC50) (reversal of inhibition) (hGPR17L; 3 µM forskolin): 5.40±0.09
- cAMP Potency (pIC50) (hGPR17L; 3 µM forskolin): 8.52±0.08
- EC50 (hGPR17L; [1]): 4000 nM
- IC50 (hGPR17L; [2]): 3 nM
- cAMP Effect of 100 μM MDL (% Inhibition) (hGPR17L; [3]): 9.0±2.1%
